Measured values from ChEMBL document CHEMBL4346710, “Discovery of 7H-pyrrolo[2,3-d]pyrimidine derivatives as selective covalent irreversible inhibitors of interleukin-2-inducible T-cell kinase (Itk)” (Eur J Med Chem, 2019).
Calls of active or inactive are those of the source. The rule behind the calls is not given here.

Key:
[1] = molecular target: Mitogen-activated protein kinase 3 (Homo sapiens) (UniProt P27361); test: Inhibition of recombinant full length human GST-tagged ERK1 expressed in Escherichia coli assessed as enzyme residual activity at 0.4 uM using fluorophore-labeled serine/threonine-3 peptide as substrate incubated for 60 mins by Z'-LYTE assay relative to control
Chain of Mitogen-activated protein kinase 3 (Homo sapiens) (P27361 whole entry, the tested form may be a part): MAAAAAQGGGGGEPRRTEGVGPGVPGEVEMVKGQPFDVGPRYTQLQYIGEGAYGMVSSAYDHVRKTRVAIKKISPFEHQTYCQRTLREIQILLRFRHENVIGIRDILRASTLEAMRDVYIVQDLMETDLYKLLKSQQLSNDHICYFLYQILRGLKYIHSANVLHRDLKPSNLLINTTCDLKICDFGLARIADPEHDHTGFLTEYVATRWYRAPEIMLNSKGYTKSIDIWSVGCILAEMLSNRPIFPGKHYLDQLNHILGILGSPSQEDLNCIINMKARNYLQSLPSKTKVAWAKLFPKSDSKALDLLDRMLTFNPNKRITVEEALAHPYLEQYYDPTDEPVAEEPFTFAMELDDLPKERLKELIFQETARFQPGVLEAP

[2] = molecular target: Tyrosine-protein kinase Lck (Homo sapiens, UniProt P06239); test: Inhibition of recombinant full length human C-terminal His-tagged LCK cytoplasmic domain expressed in baculovirus expression system assessed as enzyme residual activity at 0.4 uM using fluorophore-labeled tyrosine-2 peptide as substrate incubated for 60 mins by Z'-LYTE assay relative to control
Chain of Tyrosine-protein kinase Lck (P06239 2-509 limits assumed): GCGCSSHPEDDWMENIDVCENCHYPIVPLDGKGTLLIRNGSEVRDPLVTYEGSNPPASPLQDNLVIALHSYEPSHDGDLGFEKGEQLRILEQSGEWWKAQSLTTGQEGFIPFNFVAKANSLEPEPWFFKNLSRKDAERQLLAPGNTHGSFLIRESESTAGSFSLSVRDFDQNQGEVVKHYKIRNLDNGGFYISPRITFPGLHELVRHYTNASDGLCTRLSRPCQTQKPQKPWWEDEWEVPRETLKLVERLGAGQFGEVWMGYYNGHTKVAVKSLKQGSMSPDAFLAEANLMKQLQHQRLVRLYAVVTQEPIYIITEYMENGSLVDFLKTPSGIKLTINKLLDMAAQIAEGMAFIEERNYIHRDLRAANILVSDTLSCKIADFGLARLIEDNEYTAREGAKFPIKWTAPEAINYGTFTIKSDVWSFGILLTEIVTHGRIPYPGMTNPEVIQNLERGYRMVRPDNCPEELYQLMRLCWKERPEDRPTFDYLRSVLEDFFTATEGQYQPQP

[3] = molecular target: Tyrosine-protein kinase JAK3 (Homo sapiens) (UniProt P52333); test: (§1) Inhibition of recombinant human GST-tagged JAK3 catalytic domain (781 to 1124 residues) expressed in baculovirus expression system assessed as enzyme residual activity at 0.4 uM using fluorophore-labeled tyrosine-6 peptide as substrate incubated for 60 mins by Z'-LYTE assay relative to control
Chain of Tyrosine-protein kinase JAK3 (Homo sapiens) (P52333 whole entry, the tested form may be a part): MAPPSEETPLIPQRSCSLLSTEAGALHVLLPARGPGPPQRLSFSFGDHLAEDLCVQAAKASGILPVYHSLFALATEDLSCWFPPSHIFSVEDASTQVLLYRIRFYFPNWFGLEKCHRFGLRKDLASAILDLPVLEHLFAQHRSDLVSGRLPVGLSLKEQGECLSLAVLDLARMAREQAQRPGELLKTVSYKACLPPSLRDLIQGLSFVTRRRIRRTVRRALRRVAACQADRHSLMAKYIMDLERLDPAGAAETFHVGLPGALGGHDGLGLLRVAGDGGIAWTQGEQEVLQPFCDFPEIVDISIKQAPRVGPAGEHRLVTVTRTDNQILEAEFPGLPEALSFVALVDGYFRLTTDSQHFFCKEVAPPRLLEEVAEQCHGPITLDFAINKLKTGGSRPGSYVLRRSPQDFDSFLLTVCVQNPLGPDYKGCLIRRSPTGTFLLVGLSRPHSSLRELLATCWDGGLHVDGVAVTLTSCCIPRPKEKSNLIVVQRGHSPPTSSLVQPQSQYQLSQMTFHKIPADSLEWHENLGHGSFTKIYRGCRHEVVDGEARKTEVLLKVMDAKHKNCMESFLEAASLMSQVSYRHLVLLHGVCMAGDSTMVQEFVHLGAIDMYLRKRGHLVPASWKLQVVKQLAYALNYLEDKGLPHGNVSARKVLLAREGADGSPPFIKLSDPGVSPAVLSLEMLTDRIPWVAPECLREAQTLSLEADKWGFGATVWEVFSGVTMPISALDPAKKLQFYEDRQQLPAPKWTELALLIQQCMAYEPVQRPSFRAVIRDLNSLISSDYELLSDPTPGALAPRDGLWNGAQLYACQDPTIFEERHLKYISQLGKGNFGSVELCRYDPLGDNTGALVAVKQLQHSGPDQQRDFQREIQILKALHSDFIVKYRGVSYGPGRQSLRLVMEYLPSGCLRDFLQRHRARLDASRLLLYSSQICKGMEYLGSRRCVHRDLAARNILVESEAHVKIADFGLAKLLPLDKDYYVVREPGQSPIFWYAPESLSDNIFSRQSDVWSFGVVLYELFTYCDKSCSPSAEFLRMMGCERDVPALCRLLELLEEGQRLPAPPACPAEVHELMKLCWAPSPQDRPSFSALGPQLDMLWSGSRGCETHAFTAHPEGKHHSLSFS

[4] = molecular target: T1, Tyrosine-protein kinase ITK/TSK (Homo sapiens) (UniProt Q08881); test: Inhibition of recombinant human N-terminal His6-tagged ITK (352 to 617 residues) expressed in baculovirus infected Sf21 insect cells assessed as inactivation rate constant using STK substrate by HTRF assay
T1 sequence (whole entry): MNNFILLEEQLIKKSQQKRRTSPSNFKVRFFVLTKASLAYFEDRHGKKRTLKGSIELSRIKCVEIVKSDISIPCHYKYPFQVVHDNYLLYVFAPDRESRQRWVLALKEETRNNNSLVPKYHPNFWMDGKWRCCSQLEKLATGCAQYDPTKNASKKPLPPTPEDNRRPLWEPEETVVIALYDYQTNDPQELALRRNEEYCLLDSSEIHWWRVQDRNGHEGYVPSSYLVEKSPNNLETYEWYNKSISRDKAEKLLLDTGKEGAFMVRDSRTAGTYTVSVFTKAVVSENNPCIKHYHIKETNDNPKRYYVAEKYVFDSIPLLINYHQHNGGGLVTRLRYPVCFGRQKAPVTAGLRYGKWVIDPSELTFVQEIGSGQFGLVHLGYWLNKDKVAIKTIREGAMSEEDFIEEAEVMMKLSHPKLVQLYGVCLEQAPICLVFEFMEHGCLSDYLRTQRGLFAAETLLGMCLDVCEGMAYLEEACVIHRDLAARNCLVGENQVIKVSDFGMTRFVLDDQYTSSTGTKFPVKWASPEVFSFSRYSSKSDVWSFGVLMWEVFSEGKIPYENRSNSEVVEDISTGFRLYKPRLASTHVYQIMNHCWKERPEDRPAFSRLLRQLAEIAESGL

[5] = molecular target: T2, Tyrosine-protein kinase BTK (Homo sapiens, UniProt Q06187); test: Inhibition of BTK in human Ramos cells assessed as reduction in […] PLCgamma2 phosphorylation at 10 to 3000 nM preincubated for 2 hrs followed by […] addition and measured after 30 min by Western blot analysis; format: cell-based
T2 sequence (Q06187 whole entry): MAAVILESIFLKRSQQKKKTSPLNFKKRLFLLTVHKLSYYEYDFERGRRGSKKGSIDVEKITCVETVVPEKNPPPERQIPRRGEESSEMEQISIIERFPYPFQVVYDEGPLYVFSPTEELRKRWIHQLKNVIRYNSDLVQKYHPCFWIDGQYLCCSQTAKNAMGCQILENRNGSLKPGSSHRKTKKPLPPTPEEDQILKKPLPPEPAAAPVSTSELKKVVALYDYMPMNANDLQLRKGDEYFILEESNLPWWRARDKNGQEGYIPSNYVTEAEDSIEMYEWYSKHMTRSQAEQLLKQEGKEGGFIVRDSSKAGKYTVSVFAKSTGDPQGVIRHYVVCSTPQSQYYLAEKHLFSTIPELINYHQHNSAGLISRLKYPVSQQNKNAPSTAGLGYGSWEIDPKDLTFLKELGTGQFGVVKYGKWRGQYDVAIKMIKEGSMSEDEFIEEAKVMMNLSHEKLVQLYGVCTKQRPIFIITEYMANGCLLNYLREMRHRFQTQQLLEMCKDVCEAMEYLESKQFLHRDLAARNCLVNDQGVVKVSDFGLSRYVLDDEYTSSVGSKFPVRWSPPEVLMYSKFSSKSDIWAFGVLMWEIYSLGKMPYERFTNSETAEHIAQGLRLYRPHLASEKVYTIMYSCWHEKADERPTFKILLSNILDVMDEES

Jurkat = test: Growth inhibition of human Jurkat cells incubated for 72 hrs by CellTiter-Glo luminescent cell viability assay; format: functional
[6] = molecular target: Ephrin type-A receptor 2 (Homo sapiens) (UniProt P29317); test: Inhibition of recombinant human GST-tagged EPHA2 cytoplasmic domain (560 to 976 residues) expressed in baculovirus expression system assessed as enzyme residual activity at 0.4 uM using tyrosine-01 peptide as substrate incubated for 60 mins by Z'-Lyte assay relative to control
[7] = Inhibition of tracer 236 binding to recombinant full length human C-terminal His-tagged AMPK alpha2/beta2/gamma1 expressed in baculovirus infected Sf9 cells assessed as enzyme residual activity at 0.4 uM incubated for 60 mins by Lanthascreen assay relative to control
TAK1/TAB1 (Homo sapiens) = TAK1/TAB1 (Homo sapiens) (UniProt Q15750+O43318); test: Inhibition of tracer 222 binding to recombinant full-length human His-tagged MAP3K7/MAP3K7IP1 (437 to 504 residues) expressed in baculovirus expression system assessed as enzyme residual activity at 0.4 uM incubated for 60 mins by Lanthascreen assay relative to control
[8] = molecular target: Tyrosine-protein kinase Blk (Homo sapiens, UniProt P51451); test: Inhibition of recombinant full-length human His-tagged BLK cytoplasmic domain expressed in baculovirus expression system using fluorophore-labeled tyrosine-1 peptide as substrate incubated for 60 mins by Z'-LYTE assay
Chain of Tyrosine-protein kinase Blk (P51451 whole entry, the tested form may be a part): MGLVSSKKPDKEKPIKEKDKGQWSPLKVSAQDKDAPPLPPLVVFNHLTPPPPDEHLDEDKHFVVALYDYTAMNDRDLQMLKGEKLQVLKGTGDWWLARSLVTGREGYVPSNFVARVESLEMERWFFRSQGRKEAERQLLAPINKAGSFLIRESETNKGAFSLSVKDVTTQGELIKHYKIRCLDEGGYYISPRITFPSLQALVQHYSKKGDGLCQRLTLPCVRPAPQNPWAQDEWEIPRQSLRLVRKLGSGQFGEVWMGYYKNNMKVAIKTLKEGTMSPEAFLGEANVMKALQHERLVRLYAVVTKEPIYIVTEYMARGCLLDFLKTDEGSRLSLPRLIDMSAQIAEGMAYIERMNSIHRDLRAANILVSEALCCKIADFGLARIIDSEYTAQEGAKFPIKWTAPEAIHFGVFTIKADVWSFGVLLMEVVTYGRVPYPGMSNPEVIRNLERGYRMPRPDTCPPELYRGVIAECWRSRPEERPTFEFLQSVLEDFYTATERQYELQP

[9] = molecular target: Epidermal growth factor receptor (Homo sapiens, UniProt P00533); test: Inhibition of recombinant human N-terminal GST-tagged EGFR kinase domain (696 to end residues) expressed in baculovirus infected Sf21 insect cells using STK as substrate by HTRF assay
Chain of Epidermal growth factor receptor (P00533 whole entry, the tested form may be a part): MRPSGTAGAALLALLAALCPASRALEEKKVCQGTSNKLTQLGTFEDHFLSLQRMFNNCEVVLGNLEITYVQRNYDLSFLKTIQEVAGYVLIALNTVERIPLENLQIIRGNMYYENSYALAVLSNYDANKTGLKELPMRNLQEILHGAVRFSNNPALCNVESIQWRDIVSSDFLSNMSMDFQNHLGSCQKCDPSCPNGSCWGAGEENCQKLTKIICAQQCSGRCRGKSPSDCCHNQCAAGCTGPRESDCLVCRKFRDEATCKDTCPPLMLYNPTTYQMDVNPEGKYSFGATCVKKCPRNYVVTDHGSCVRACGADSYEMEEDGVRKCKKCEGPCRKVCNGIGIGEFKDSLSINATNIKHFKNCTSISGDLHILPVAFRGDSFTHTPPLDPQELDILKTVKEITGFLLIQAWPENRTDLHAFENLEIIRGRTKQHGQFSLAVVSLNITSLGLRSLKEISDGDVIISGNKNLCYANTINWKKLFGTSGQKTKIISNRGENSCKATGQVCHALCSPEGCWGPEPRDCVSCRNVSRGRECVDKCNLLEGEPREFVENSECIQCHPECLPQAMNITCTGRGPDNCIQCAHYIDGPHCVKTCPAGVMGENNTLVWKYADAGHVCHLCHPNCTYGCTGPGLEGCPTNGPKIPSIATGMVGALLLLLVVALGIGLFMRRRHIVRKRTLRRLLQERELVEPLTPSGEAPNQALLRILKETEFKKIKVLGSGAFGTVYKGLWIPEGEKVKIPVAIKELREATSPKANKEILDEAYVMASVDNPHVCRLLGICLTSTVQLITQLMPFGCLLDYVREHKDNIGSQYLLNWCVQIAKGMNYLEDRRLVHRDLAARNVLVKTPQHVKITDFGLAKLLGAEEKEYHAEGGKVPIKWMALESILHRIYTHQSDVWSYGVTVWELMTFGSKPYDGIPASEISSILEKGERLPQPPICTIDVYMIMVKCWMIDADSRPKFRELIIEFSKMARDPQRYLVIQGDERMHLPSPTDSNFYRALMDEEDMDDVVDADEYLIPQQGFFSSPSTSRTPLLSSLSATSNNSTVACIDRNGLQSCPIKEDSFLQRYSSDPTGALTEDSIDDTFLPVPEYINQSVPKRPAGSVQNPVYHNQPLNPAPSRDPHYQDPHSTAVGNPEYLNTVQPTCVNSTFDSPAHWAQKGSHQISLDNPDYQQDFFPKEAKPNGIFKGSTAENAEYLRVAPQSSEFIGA

[10] = molecular target: T2, Tyrosine-protein kinase BTK; test: Inhibition of recombinant human full-length N-terminal His6-tagged BTK expressed in baculovirus infected Sf21 insect cells using STK substrate by HTRF assay
[11] = molecular target: RAC-alpha serine/threonine-protein kinase (Homo sapiens) (UniProt P31749); test: Inhibition of recombinant full length human His-tagged AKT1 expressed in baculovirus expression system assessed as enzyme residual activity at 0.4 uM using fluorophore-labeled serine/threonine-06 peptide as substrate incubated for 60 mins by Z'-LYTE assay relative to control
CCRF-CEM = test: Growth inhibition of human CCRF-CEM cells incubated for 72 hrs by CellTiter-Glo luminescent cell viability assay; format: functional
[12] = molecular target: Hepatocyte growth factor receptor (Homo sapiens) (UniProt P08581); test: Inhibition of recombinant human N-terminal His-tagged cMET cytoplasmic domain (956 to 1390 residues) expressed in baculovirus expression system assessed as enzyme residual activity at 0.4 uM using fluorophore-labeled tyrosine 6 peptide as substrate incubated for 60 mins by Z'-LYTE assay relative to control
[13] = molecular target: Serine/threonine-protein kinase Nek1 (Homo sapiens) (UniProt Q96PY6); test: as §1, with “NEK1” for “JAK3”, “(1” for “(781”, “505 amino acids)” for “1124 residues)”, “serine/threonine-07” for “tyrosine-6”
Homo sapiens = organism: Homo sapiens; test: Selectivity ratio of IC50 for recombinant human N-terminal His6-tagged JAK3 (781 to end residues) expressed in baculovirus infected Sf21 cells to IC50 for recombinant human N-terminal His6-tagged ITK (352 to 617 residues) expressed in baculovirus infected Sf21 insect cells
[14] = molecular target: cAMP-dependent protein kinase catalytic subunit alpha (Homo sapiens) (UniProt P17612); test: Inhibition of recombinant human His-tagged PRKACA catalytic domain (1 to 351 residues) expressed in Escherichia coli assessed as enzyme residual activity at 0.4 uM using fluorophore-labeled serine/threonine-1 peptide as substrate incubated for 60 mins by Z'-LYTE assay relative to control
[15] = molecular target: Mitogen-activated protein kinase 14 (Homo sapiens) (UniProt Q16539); test: Inhibition of recombinant full length human GST-tagged MAPK14 expressed in Escherichia coli assessed as enzyme residual activity at 0.4 uM using fluorophore-labeled serine/threonine-04 peptide as substrate incubated for 60 mins by Z'-LYTE assay relative to control
Chain of Mitogen-activated protein kinase 14 (Homo sapiens) (Q16539 whole entry): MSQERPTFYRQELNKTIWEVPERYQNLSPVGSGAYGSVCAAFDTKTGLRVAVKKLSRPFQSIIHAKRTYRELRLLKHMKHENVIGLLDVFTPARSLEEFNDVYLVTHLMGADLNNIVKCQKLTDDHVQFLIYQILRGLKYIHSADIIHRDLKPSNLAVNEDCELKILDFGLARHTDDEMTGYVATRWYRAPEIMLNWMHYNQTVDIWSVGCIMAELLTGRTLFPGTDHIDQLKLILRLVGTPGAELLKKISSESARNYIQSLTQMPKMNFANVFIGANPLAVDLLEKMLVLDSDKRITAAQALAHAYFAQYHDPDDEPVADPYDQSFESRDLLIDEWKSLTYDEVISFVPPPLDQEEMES

Question: Which results are given for `C=CC(=O)N1CCC(Oc2nc(Nc3ccc(N4CCOCC4)cc3)nc3[nH]cc(-c4cncc(NC)n4)c23)CC1`?
Answer: Activity [1]: 98.7%; Activity [2]: 9%; Activity [3]: 16.3%; K [4]: 0.038 min⁻¹; inhibition [5]: inactive; GI50 (Jurkat): 184 nM; Activity [6]: 95%; Activity [7]: 64.3%; Activity (TAK1/TAB1 (Homo sapiens)): 0%; IC50 [8]: 198 nM; IC50 [9]: 1260 nM; IC50 [10]: 996 nM; Activity [11]: 96%; GI50 (CCRF-CEM): 127 nM; Activity [12]: 79%; Activity [13]: 89%; Ratio IC50 (Homo sapiens): 33; Activity [14]: 86%; Activity [15]: 95%
